Reference: ChEMBL document CHEMBL4177708, “N-Arylsulfonylsubstituted-1H indole derivatives as small molecule dual inhibitors of signal transducer and activator of transcription 3 (STAT3) and tubulin” (Bioorg Med Chem, 2018)
Active and inactive are the calls of the source. The calls are words filed in the database; no cut-off is given here.

How the values were obtained:
[1] = test system: A549; test: […] of beta-tubulin polymerization in human A549 cells at 1 uM after 12 to 24 hrs by DAPI staining based confocal microscopic method; assay type: cell-based
[2] = Solubility of the compound in 0.1% DMSO; assay type: physicochemical
[3] = test system: A549; test: Inhibition of beta-tubulin polymerization in human A549 cells at 1 uM after 12 to 24 hrs by DAPI staining based confocal microscopic method; assay type: cell-based
[4] = target: Signal transducer and activator of transcription 3 (Homo sapiens) (UniProt P40763); test: Inhibition of STAT3 phosphorylation at Tyr-705 residue in human MDA-MB-231 cells at 8 to 10 uM after 12 hrs by Western blot analysis; assay type: cell-based
Sequence of Signal transducer and activator of transcription 3 (Homo sapiens) (P40763 whole entry): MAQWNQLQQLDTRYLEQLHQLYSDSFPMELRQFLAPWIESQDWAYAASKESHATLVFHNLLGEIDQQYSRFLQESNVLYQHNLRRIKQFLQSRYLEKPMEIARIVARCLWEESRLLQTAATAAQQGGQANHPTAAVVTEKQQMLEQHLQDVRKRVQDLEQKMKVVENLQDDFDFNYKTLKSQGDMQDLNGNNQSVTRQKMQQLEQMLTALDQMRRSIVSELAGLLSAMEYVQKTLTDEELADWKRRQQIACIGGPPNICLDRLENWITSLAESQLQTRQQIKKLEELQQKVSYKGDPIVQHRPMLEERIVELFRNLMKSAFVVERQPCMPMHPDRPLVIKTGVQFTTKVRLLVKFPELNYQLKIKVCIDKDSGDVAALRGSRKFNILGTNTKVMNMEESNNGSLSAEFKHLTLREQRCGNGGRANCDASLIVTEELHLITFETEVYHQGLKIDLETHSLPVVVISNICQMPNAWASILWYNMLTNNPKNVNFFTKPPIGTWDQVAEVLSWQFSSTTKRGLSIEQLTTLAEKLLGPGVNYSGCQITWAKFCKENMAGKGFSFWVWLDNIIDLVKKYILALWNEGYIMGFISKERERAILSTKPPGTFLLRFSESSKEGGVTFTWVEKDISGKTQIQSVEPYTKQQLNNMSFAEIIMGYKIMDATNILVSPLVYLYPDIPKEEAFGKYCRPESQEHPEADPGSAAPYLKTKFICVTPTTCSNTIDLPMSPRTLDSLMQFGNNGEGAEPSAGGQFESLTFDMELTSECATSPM

[5] = target: Signal transducer and activator of transcription 3 (Homo sapiens) (UniProt P40763); test: Inhibition of IL-6-stimulated STAT3 phosphorylation at Tyr-705 residue in human MDA-MB-231 cells at 1 to 4 uM preincubated for 2 hrs followed by IL-6 stimulation measured after 30 mins by Western blot analysis; assay type: cell-based
[6] = target: Signal transducer and activator of transcription 3 (Homo sapiens) (UniProt P40763); test: Inhibition of STAT3 phosphorylation at Tyr-705 residue in human MDA-MB-231 cells after 12 hrs by Western blot analysis; assay type: cell-based

## CC(=O)O[C@H]1C(=O)[C@@]2(C)[C@H]([C@H](OC(=O)c3ccccc3)[C@]3(O)C[C@H](OC(=O)[C@H](O)[C@@H](NC(=O)c4ccccc4)c4ccccc4)C(C)=C1C3(C)C)[C@]1(OC(C)=O)CO[C@@H]1C[C@@H]2O
[1]
  Activity: Active

## COc1ccc(S(=O)(=O)n2cc(Cl)c3cccc(-c4ccc(Cl)cc4)c32)cc1
[2]
  solubility: Insoluble

## COc1cc2c(c(OC)c1OC)-c1ccc(OC)c(=O)cc1[C@@H](NC(C)=O)CC2
[3]
  inhibition: Active

## O=C(C1=Cc2cc(Br)ccc2S1(=O)=O)N1CCCCC1
[4]
  inhibition: Active

## COc1ccc(S(=O)(=O)n2ccc3cccc(-c4ccc(C#N)c(F)c4)c32)cc1
[5]
  inhibition: Active
[6]
  inhibition: Dose-dependent effect

## COc1ccc(S(=O)(=O)n2ccc3cccc(Nc4ccc(C#N)c(F)c4)c32)cc1
[6]
  inhibition: Dose-dependent effect

## COc1ccc(S(=O)(=O)n2ccc3cccc(-c4ccc(S(C)(=O)=O)cc4)c32)cc1
[6]
  inhibition: Dose-dependent effect
